Results as given in patent publication US6727237B2, “Inhibitors of bacterial NAD synthetase” (priority 1998, dated 2004).
In brackets after ≈: the same amount, converted by molar mass. Several values for one entry are separate records, joined by “and”; a condition that tells them apart may be missing. Equal entries are not always repeated. Where two headings read alike, the source gives them in different places.

Tests used:
[1] = tested on: Staphylococcus epidermitis; assay: Bacterial growth inhibition screen in LB media (absorbance 595 nm), percent inhibition; settings: for % Inhibition: S. epidermitis; for inhibition of growth at 10 µM / inhibition of growth at 100 µM: Staphylococcus, read-out: % Inhibition, S. epidermitis
[2] = tested on: Staphylococcus epidermitis; assay: Dose response of bacterial growth inhibition, MIC85; settings: for MIC85: minimum inhibitory concentration to achieve 85% inhibition, S. epidermitis; for MIC: Staphylococcus, read-out: MIC85
[3] = target: T1, bacterial NAD synthetase enzyme (Bacillus subtilis, UniProt P08164); assay: biochemical; assay type: biochemical
T1 sequence (P08164 2-272 limits assumed): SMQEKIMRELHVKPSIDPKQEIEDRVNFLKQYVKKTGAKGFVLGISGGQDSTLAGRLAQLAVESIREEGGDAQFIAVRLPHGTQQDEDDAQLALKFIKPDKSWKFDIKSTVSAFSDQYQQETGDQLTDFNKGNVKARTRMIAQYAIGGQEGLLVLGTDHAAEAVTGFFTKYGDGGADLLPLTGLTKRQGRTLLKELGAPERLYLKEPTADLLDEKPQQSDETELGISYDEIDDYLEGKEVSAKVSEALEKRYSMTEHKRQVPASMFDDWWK

[4] = compound at 0.2 mM (Table 312A)
[5] = lead compounds (Table 318A), read-out: IC 50

Compound	MIC85 [2] [µM]	% Inhibition ([1]; concentration screened 10 uM)	MIC [2] [µM]	IC50 [3] [µM]	other results
FC(F)(F)c1ccc2cc(CCCCCC[n+]3ccccc3)[nH]c2c1 [Compound 291]	30	–	–	–	% Inhibition ([1]; concentration screened 100 uM): 100.00%; % Inhibition [3, 4]: 71.94%
c1ccc(C(c2ccccc2)(c2ccccc2)c2ccc3[nH]c(CCC[n+]4ccc5ccccc5c4)cc3c2)cc1 [Compound 552]	30	50.00%	–	–	% Inhibition ([3]; compound at 0.1 mM (Table 314)): 15.24%
COC(=O)c1ccc[n+](CCCCCCCCCn2ccc3cc([N+](=O)[O-])ccc32)c1 [Compound 14]	10	98.58% and 96.19%	–	–	% Inhibition [3, 4]: 78.85%
c1ccc(C(c2ccccc2)(c2ccccc2)c2ccc3[nH]c(CCCC[n+]4ccc5ccccc5c4)cc3c2)cc1 [Compound 553]	10	94.92%	–	–	% Inhibition ([3]; compound at 0.1 mM (Table 314)): 49.49%
COC(=O)c1ccc[n+](CCCCCCCCn2ccc3cc([N+](=O)[O-])ccc32)c1 [Compound 13]	–	–	30	50	inhibition of growth at 10 µM ([1]; concentration screened 10 uM): 98.5%; inhibition at 200 µM [3]: 80.8%
C[N+](C)(C)c1ccc(CC(=O)OCCCCn2ccc3cc(OCc4ccccc4)ccc32)cc1 [Compound 745]	–	–	30	85	inhibition of growth at 10 µM ([1]; concentration screened 10 uM): 95.1%; inhibition at 200 µM [3]: 85.4%
C[N+](C)(C)c1ccc(CC(=O)OCCCCCCCn2ccc3cc(OCc4ccccc4)ccc32)cc1 [Compound 748]	–	–	10	–	inhibition of growth at 100 µM ([1]; concentration screened 100 uM): 98.4%; inhibition at 100 µM [3]: 98.4%; IC50 [3, 5]: 30 µM
COc1ccc2c(ccn2CCCCCCCOC(=O)Cc2ccc([N+](C)(C)C)cc2)c1 [Compound 743]	10	97.67%	–	–	% Inhibition ([3]; compound at 0.1 mM (Table 314)): 94.10%
CCCCc1ccc2[nH]c(CCCCCC[n+]3ccccc3)cc2c1 [Compound 315]	–	–	30	100	inhibition of growth at 100 µM ([1]; concentration screened 100 uM): 100%; inhibition at 100 µM [3]: 77.2%
FC(F)(F)c1ccc2[nH]c(CCCCC[n+]3ccccc3)cc2c1 [Compound 362]	30	–	–	–	% Inhibition ([1]; concentration screened 100 uM): 100.00%; % Inhibition ([3]; compound at 0.1 mM (Table 314)): 8.31%
COC(=O)c1cc2cc(OC)ccc2n1CCCCCCCCC[n+]1ccccc1 [Compound 246]	30	90.26%	–	–	% Inhibition [3, 4]: 92.19%
COC(=O)c1ccc2ccn(CCCCCCCCC[n+]3ccccc3)c2c1 [Compound 214]	–	–	10	30	inhibition of growth at 100 µM ([1]; concentration screened 100 uM): 98.1%; inhibition at 100 µM [3]: 82.8%
Cc1ccc2[nH]c(CCCCC[n+]3ccc4ccccc4c3)cc2c1 [Compound 512]	30	–	–	–	% Inhibition ([1]; concentration screened 100 uM): 99.71%; % Inhibition [3, 4]: 17.50%
Cc1ccc2[nH]c(CCCC[n+]3ccccc3)cc2c1 [Compound 295]	10	94.48%	–	–	% Inhibition ([3]; compound at 0.1 mM (Table 314)): 25.05%
FC(F)(F)c1ccc2cc(CCC[n+]3ccccc3)[nH]c2c1 [Compound 288]	30	99.65%	–	–	% Inhibition ([3]; compound at 0.1 mM (Table 314)): 42.38%
COc1ccc2c(ccn2CCCCCCCCOC(=O)Cc2ccc([N+](C)(C)C)cc2)c1 [Compound 744]	30	97.74%	–	–	% Inhibition [3, 4]: 95.85%
COc1ccc2[nH]c(CCCCC[n+]3ccccc3)cc2c1 [Compound 374]	30	–	–	–	% Inhibition ([1]; concentration screened 100 uM): 100.00%; % Inhibition ([3]; compound at 0.1 mM (Table 314)): 31.84%
COC(=O)c1cc2cc(OCc3ccccc3)ccc2n1CCC[n+]1ccccc1 [Compound 227]	30	96.46%	–	–	% Inhibition [3, 4]: 91.19%
C[n+]1cccc(C(=O)OCCCCCCCn2ccc3cc(OCc4ccccc4)ccc32)c1 [Compound 768]	–	–	10	30	inhibition of growth at 100 µM ([1]; concentration screened 100 uM): 96.1%; inhibition at 100 µM [3]: 98.6%
C[n+]1cccc(C(=O)OCCCCCn2ccc3cc(OCc4ccccc4)ccc32)c1 [Compound 766]	–	–	30	65	inhibition of growth at 10 µM ([1]; concentration screened 10 uM): 90.5%; inhibition at 100 µM [3]: 91.2%
c1ccc2c[n+](CCCCCc3cc4ccccc4[nH]3)ccc2c1 [Compound 500]	30	–	–	–	% Inhibition ([1]; concentration screened 100 uM): 99.14%; % Inhibition ([3]; compound at 0.1 mM (Table 314)): 18.25%
C[n+]1cc(C(=O)OCCCCCCn2ccc3cc([N+](=O)[O-])ccc32)cc2ccccc21 [Compound 832]	–	–	30	90	inhibition of growth at 10 µM ([1]; concentration screened 10 uM): 94.7%; inhibition at 100 µM [3]: 78.6%
CN(C)c1ccc(CC(=O)OCCCCCCCCCn2ccc3cc([N+](=O)[O-])ccc32)cc1 [Compound 853]	30 (≈ 14 µg/mL)	98.58%	–	–	% Inhibition ([3]; compound at 0.1 mM (Table 314)): 73.46%; IC50 [3, 5]: 45 µM
COC(=O)c1cc2cc(OCc3ccccc3)ccc2n1CCCCC[n+]1ccccc1 [Compound 228]	–	–	10	60	inhibition of growth at 100 µM ([1]; concentration screened 100 uM): 96.8%; inhibition at 100 µM [3]: 95.1%

Compound	MIC85 [2] [µM]	% Inhibition ([1]; concentration screened 10 uM)	MIC [2] [µM]	IC50 [3] [µM]	other results
COC(=O)c1ccc2ccn(CCCCCCCCC[n+]3cccc(C(=O)OC)c3)c2c1 [Compound 222]	30	98.50%	–	–	% Inhibition [3, 4]: 52.98%
COc1ccc2[nH]c(CCCCCC[n+]3ccccc3)cc2c1 [Compound 375]	30	–	–	–	% Inhibition ([1]; concentration screened 100 uM): 100.00%; % Inhibition ([3]; compound at 0.1 mM (Table 314)): 60.14%
COC(=O)c1cc2ccccc2n1CCCCCCCCC[n+]1ccccc1 [Compound 182]	–	–	10	60	inhibition of growth at 100 µM ([1]; concentration screened 100 uM): 97.7%; inhibition at 100 µM [3]: 95.4%
COc1ccc2c(ccn2CCCCCCCCOC(=O)c2cc3ccccc3[n+](C)c2)c1 [Compound 824]	3.7	97.67%	–	–	–
COc1ccc2c(ccn2CCCCCOC(=O)c2cc3ccccc3[n+](C)c2)c1 [Compound 821]	30	95.02%	–	–	–
COC(=O)c1ccc[n+](CCCCCCCCCn2c(C(=O)OC)cc3ccccc32)c1 [Compound 190]	–	–	3	50	inhibition of growth at 100 µM ([1]; concentration screened 100 uM): 97.7%
O=C(OCCCCCn1ccc2cc([N+](=O)[O-])ccc21)c1cnc2ccccc2c1 [Compound 831]	30 (≈ 12.1 µg/mL)	84.68%	–	–	% Inhibition ([3]; compound at 0.1 mM (Table 314)): 26.21%
COC(=O)c1cc2cc(OCc3ccccc3)ccc2n1CCCCCCC[n+]1ccccc1 [Compound 229]	–	–	3	25	inhibition of growth at 100 µM ([1]; concentration screened 100 uM): 98%; inhibition at 100 µM [3]: 99.3%
COC(=O)c1ccc[n+](CCCCCCCn2ccc3cc([N+](=O)[O-])ccc32)c1 [Compound 12]	30	99.22% and 95.73%	–	–	% Inhibition ([3]; compound at 0.1 mM (Table 314)): 62.22%
COC(=O)c1ccc2ccn(CCCCCCC[n+]3ccccc3)c2c1 [Compound 213]	–	–	10	65	inhibition of growth at 10 µM ([1]; concentration screened 10 uM): 97.4%; inhibition at 200 µM [3]: 90.7%
Cc1ccc2[nH]c(CCCCC[n+]3ccccc3)cc2c1 [Compound 296]	30	87.47%	–	–	% Inhibition [3, 4]: 16.79%
C[N+](C)(C)c1ccc(CC(=O)OCCCCCCn2ccc3cc(OCc4ccccc4)ccc32)cc1 [Compound 747]	–	–	10	70	inhibition of growth at 10 µM ([1]; concentration screened 10 uM): 97.9%; inhibition at 100 µM [3]: 97.8%
O=C(OCCCCCCCCn1ccc2cc([N+](=O)[O-])ccc21)c1cnc2ccccc2c1 [Compound 834]	3.7 (≈ 1.65 µg/mL)	98.13%	–	–	–
C[n+]1cccc(C(=O)OCCCCCCn2ccc3cc(OCc4ccccc4)ccc32)c1 [Compound 767]	–	–	10	60	inhibition of growth at 100 µM ([1]; concentration screened 100 uM): 91.8%; inhibition at 100 µM [3]: 96%
C[N+](C)(C)c1cccc(C(=O)OCCCCCCCn2ccc3cc(OCc4ccccc4)ccc32)c1 [Compound 808]	30	98.06%	–	–	–
FC(F)(F)c1ccc2[nH]c(CCCCCC[n+]3ccccc3)cc2c1 [Compound 363]	30	–	–	–	% Inhibition ([1]; concentration screened 100 uM): 100.00%; % Inhibition [3, 4]: 75.01%
C[N+](C)(C)c1ccc(CC(=O)OCCCCCn2ccc3cc(OCc4ccccc4)ccc32)cc1 [Compound 746]	–	–	10	50	inhibition of growth at 10 µM ([1]; concentration screened 10 uM): 96.8%; inhibition at 100 µM [3]: 91.3%
COc1ccc2c(ccn2CCCCCCCCOC(=O)c2cccc([N+](C)(C)C)c2)c1 [Compound 804]	30	97.29%	–	–	–
COc1ccc2c(ccn2CCCCCCCOC(=O)c2cc3ccccc3[n+](C)c2)c1 [Compound 823]	10	97.03%	–	–	–
Fc1cc(F)c2[nH]c(CCCCC[n+]3ccc4ccccc4c3)cc2c1 [Compound 518]	30	–	–	–	% Inhibition ([1]; concentration screened 100 uM): 100.00%; % Inhibition ([3]; compound at 0.1 mM (Table 314)): 30.39%
Cc1ccc2[nH]c(CCCCCC[n+]3ccccc3)cc2c1 [Compound 297]	30	–	–	–	% Inhibition ([1]; concentration screened 100 uM): 100.00%; % Inhibition ([3]; compound at 0.1 mM (Table 314)): 50.83%
CN(C)c1cccc(C(=O)OCCCCCCCCn2ccc3cc([N+](=O)[O-])ccc32)c1 [Compound 840]	10 (≈ 4.38 µg/mL)	98.77%	–	–	–
CN(C)c1cccc(C(=O)OCCCCCCCCCn2ccc3cc([N+](=O)[O-])ccc32)c1 [Compound 841]	10 (≈ 4.52 µg/mL)	98.90%	–	–	–
O=C(OCCCCCCCCCn1ccc2cc([N+](=O)[O-])ccc21)c1cnc2ccccc2c1 [Compound 835]	3.7 (≈ 1.7 µg/mL)	99.03%	–	–	–
